Measurements as given in patent US20090203683A1, “BICYCLIC HETEROCYCLES, PHARMACEUTICAL COMPOSITIONS CONTAINING THEM, THEIR USE, AND PROCESSES FOR PREPARING THEM” (BOEHRINGER INGELHEIM PHARMA GMBH & CO. KG, priority 2000, published 2009).

Key:
human EGF-R = target: T1, human EGF-R (Homo sapiens, UniProt P00533); experiment: Inhibition of EGF-dependent proliferation of F/L-HERc cells (Cell Titer 96 Aqueous Non-Radioactive Cell Proliferation Assay); assay type: cell-based; settings: F/L-HERc cells (murine IL-3-dependent line expressing human EGF-R), stimulated with EGF 20 ng/ml, 48 hours at 37° C., relative cell number as % of control
T1 construct: expressed in transfected cells; host or cells: F/L-HERc cells (murine IL-3-dependent FDC-P1 cells transduced with retroviral vector LXSN carrying human EGF-R cDNA; packaging line GP+E86)
T1 sequence (P00533 25-1210): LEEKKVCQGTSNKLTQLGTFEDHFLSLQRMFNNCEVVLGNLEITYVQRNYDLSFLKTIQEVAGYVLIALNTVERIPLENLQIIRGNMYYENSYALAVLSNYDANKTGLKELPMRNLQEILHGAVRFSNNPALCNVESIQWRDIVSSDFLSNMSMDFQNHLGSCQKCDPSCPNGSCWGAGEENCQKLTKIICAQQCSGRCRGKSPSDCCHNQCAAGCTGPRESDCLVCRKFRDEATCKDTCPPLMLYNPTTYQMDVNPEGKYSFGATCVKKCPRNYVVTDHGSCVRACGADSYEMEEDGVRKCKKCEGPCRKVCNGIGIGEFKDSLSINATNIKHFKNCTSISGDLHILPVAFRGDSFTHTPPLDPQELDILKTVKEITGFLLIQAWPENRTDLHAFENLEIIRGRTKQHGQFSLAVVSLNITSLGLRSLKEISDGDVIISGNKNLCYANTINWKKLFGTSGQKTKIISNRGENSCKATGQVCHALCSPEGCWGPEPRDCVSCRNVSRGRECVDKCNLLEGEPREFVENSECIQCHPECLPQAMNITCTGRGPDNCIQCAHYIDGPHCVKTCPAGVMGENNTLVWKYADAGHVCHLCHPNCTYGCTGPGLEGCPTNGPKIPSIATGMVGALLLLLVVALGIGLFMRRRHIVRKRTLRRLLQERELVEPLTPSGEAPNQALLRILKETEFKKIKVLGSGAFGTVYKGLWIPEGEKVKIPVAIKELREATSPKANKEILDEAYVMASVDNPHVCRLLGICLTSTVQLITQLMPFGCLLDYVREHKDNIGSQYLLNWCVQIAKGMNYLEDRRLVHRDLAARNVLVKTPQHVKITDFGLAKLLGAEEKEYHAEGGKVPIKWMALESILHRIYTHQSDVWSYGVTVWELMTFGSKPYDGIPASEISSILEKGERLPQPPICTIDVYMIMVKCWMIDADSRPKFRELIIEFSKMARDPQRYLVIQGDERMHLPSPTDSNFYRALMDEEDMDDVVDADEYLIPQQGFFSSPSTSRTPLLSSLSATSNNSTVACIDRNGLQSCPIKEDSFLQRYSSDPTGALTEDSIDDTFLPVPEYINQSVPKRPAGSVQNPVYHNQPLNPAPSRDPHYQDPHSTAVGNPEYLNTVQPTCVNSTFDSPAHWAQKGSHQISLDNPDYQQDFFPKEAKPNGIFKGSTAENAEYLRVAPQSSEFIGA
Description: The biological properties of the new compounds were investigated as follows. […] A cell line of murine origin dependent on interleukin-3-(IL-3) which was genetically modified to express functional human EGF-R was used here. The proliferation of these cells known as F/L-HERc can therefore be stimulated either by murine IL-3 or by EGF (cf. T. von Rüden et al. in EMBO J. 7, 2749-2756 (1988) and J. H. Pierce et al. in Science 239, 628-631 (1988)). The starting material used for the F/L-HERc cells was the cell line FDC-P1, the production of which has been described by T. M. Dexter et al. in J. Exp. Med. 152, 1036-1047 (1980). Alternatively, however, other growth-factor-dependent cells may also be used (cf. for example, J. H. Pierce et al. in Science 239, 628-631 (1988); H. Shibuya et al. in Cell 70, 57-67 (1992) and W. S. Alexander in EMBO J. 10, 3683-3691 (1991)). For expressing the human EGF-R cDNA (cf. A. Ullrich et al. in Nature 309, 418-425 (1984)) recombinant retroviruses were used as described by T. von Rüden et al., EMBO J. 7, 2749-2756 (1988), except that the retroviral vector LXSN (cf. A. D. Miller et al. in BioTechniques 7, 980-990 (1989)) was used for the expression of the EGF-R cDNA and the line GP+E86 (cf. D. Markowitz et al. in J. Virol. 62, 1120-1124 (1988)) was used as the packaging cell.
The test was performed as follows. F/L-HERc cells were cultivated in RPMI/1640 medium (BioWhittaker), supplemented with 10% fetal calf serum (FCS, Boehringer Mannheim), 2 mM glutamine (BioWhittaker), standard antibiotics and 20 ng/ml of human EGF (Promega), at 37° C. and 5% CO2—In order to investigate the inhibitory activity of the compounds according to the invention, 1.5×10^4 cells per well were cultivated in triplicate in 96-well dishes in the above medium (200 μl), the cell proliferation being stimulated with either EGF (20 ng/ml) or murine IL-3. The IL-3 used was obtained from culture supernatants of the cell line X63/0 mL-3 (cf. H. Karasuyama et al. in Eur. J. Immunol. 18, 97-104 (1988)). The compounds according to the invention were dissolved in 100% dimethylsulfoxide (DMSO) and added to the cultures in various dilutions, the maximum DMSO concentration being 1%. The cultures were incubated for 48 hours at 37° C.
In order to determine the inhibitory activity of the compounds according to the invention the relative cell number was measured in O.D. units using the Cell Titer 96™ Aqueous Non-Radioactive Cell Proliferation Assay (Promega). The relative cell number was calculated as a percentage of the control (F/LHERc cells without inhibitor) and the concentration of active substance which inhibits the proliferation of the cells by 50% (IC50) was derived therefrom.

| Structure (SMILES) | IC50 (human EGF-R) | melting point |
| --- | --- | --- |
| COC(=O)[C@@H]1CCCN1CCCOc1cc2c(Nc3cccc(Br)c3)ncnc2cc1OC [2(1), (s)-4-[(3-bromophenyl)amino]-6-[3-(2-methoxycarbonylpyrrolidin-1-yl)propyloxy]-7-methoxyquinazoline] | 0.039 µM | – |
| COC(=O)CN1CCN(CCCOc2cc3c(Nc4ccc(F)c(Cl)c4)ncnc3cc2OC)CC1 [Example 1, 4-(3-chloro-4-fluorophenylamino)-6-{3-[4-(methoxycarbonylmethyl)-1-piperazinyl]propyloxy}-7-methoxyquinazoline] | 0.046 µM | – |
| COC(=O)CC(CC(=O)OC)N1CCN(CCOc2cc3c(Nc4cccc(Br)c4)ncnc3cc2OC)CC1 [3(4), 4-[(3-bromophenyl)amino]-6-[2-(4-{1-[(methoxycarbonyl)methyl]-2-(methoxycarbonyl)ethyl}piperazin-1-yl)ethoxy]-7-methoxyquinazoline] | 0.077 µM | – |
| CCOC(=O)CN1CCC[C@H]1COc1cc2c(Nc3cccc(Br)c3)ncnc2cc1OC [1(2), (s)-4-[(3-bromophenyl)amino]-6-({1-[(ethoxycarbonyl)methyl]pyrrolidin-2-yl}methoxy)-7-methoxyquinazoline] | 0.02 µM | – |
| CCOC(=O)CN(CCOc1cc2c(Nc3cccc(Br)c3)ncnc2cc1OC)CC(=O)OCC [3(2), 4-[(3-bromophenyl)amino]-6-(2-{N,N-bis[(ethoxycarbonyl)methyl]amino}ethoxy)-7-methoxyquinazoline] | 0.07 µM | – |
| CCOC(=O)CN1CCN(CCOc2cc3c(Nc4cccc(Br)c4)ncnc3cc2OC)CC1 [Example 3, 4-[(3-bromophenyl)amino]-6-(2-{4-[(ethoxycarbonyl)methyl]piperazin-1-yl}ethoxy)-7-methoxyquinazoline] | 0.045 µM | 155 °C |
| CCOC(=O)CN1CCN(CC(O)COc2cc3c(Nc4cccc(Br)c4)ncnc3cc2OC)CC1 (centres unmarked) [Example 4, 4-[(3-bromophenyl)amino]-6-(3-{4-[(ethoxycarbonyl)methyl]piperazin-1-yl}-2-hydroxypropyloxy)-7-methoxyquinazoline] | 0.033 µM | 118 to 122 °C |
| CCOC(=O)CN(C)CCCOc1cc2c(Nc3ccc(F)c(Cl)c3)ncnc2cc1OC [Example 2, 4-(3-chloro-4-fluorophenylamino)-6-{3-[N-(ethoxycarbonylmethyl)-N-methylamino]propyloxy}-7-methoxyquinazoline] | 0.23 µM | – |
| CCOC(=O)CN(C)CCOc1cc2c(Nc3cccc(Br)c3)ncnc2cc1OC [3(1), 4-[(3-bromophenyl)amino]-6-(2-{N-[(ethoxycarbonyl)methyl]-N-methylamino}ethoxy)-7-methoxyquinazoline] | 0.1 µM | – |
